Test results as given in ChEMBL document CHEMBL3046330, “Synthesis and biological activity of hydrazidehydrazones and their corresponding 3-acetyl-2,5-disubstituted-2,3-dihydro-1,3,4-oxadiazoles” (Med Chem Res, 2012).
Converted amounts (≈) assume the structure as drawn. The source made the active and inactive calls. The calls are words filed in the database; no cut-off is given here.

How the values were obtained:
[1] = tested on: HL-60; experiment: Antioxidant activity in PMA-stimulated Homo sapiens (human) HL60 cells assessed as inhibition of intracellular ROS generation incubated for 30 min prior to PMA stimulation measured after 30 min by DCFH-DA assay; format: functional, cell-based
[2] = tested on: SW1353; experiment: Inhibition of PMA-induced NFkappaB activity in Homo sapiens (human) SW1353 cells up to 25 ug/ml incubated for 30 min followed by PMA induction for 8 hr by luciferase reporter gene assay; format: cell-based
[3] = molecular target: T1, Nitric oxide synthase, inducible (Mus musculus) (UniProt P29477); experiment: Inhibition of iNOS in Mus musculus (mouse) RAW264.7 cells assessed as inhibition of LPS-induced nitrite production up to 25 ug/ml incubated for 30 min prior to LPS challenge measured after 24 hr by Griess assay relative to vehicle-treated control; format: cell-based
T1 sequence (whole entry): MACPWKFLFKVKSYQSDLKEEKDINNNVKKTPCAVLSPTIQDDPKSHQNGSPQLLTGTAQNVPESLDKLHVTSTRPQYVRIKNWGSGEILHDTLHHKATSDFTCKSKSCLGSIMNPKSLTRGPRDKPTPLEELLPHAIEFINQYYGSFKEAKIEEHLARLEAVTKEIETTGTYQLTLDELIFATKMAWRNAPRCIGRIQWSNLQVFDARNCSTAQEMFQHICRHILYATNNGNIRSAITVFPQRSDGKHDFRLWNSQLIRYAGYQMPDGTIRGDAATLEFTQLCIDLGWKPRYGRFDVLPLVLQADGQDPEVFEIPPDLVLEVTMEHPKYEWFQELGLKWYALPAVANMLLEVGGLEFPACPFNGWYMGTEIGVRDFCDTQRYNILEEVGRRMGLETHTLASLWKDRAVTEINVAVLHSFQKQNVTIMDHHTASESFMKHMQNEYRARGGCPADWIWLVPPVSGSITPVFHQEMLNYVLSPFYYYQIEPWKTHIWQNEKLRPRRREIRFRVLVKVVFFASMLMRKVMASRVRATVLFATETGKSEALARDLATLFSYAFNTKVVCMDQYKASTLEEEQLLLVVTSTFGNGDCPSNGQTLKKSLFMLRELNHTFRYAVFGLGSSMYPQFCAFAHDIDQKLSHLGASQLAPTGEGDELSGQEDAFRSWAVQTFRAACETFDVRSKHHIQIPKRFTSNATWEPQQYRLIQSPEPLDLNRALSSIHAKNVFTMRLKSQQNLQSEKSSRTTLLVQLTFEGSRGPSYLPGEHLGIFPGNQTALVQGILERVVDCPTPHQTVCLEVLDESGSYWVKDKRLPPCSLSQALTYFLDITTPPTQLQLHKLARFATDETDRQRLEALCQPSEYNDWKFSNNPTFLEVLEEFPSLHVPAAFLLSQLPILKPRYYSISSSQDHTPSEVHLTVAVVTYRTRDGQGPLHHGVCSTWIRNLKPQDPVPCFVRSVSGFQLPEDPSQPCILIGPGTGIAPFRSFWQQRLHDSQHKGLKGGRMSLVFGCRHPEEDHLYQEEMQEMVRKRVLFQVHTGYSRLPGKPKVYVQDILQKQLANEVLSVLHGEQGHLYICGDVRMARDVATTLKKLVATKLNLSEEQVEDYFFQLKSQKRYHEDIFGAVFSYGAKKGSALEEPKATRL

[4] = tested on: Pichia kudriavzevii; experiment: Antifungal activity against Pichia kudriavzevii NRRL Y-7179 after 24 hr by NCCLS broth microdilution method; format: functional; settings: NRRL Y-7179, 24 h
[5] = tested on: Candida albicans; experiment: Antifungal activity against Candida albicans clinical isolate at 2000 ug/ml by agar diffusion method; format: functional; settings: read-out: IZ
[6] = tested on: RAW264.7; experiment: Cytotoxicity against Mus musculus (mouse) RAW264.7 cells up to 25 ug/ml; format: cell-based
[7] = tested on: Candida albicans; experiment: Antifungal activity against Candida albicans NRRL Y-12983 after 24 hr by NCCLS broth microdilution method; format: functional; settings: NRRL Y-12983, 24 h
[8] = tested on: KB; experiment: Cytotoxicity against Homo sapiens (human) KB cells assessed as cell viability up to 25 ug/ml after 48 hr by neutral red assay; format: functional, cell-based
[9] = tested on: HL-60; experiment: Cytotoxicity against Homo sapiens (human) HL60 cells; format: cell-based
[10] = tested on: BT-549; experiment: Cytotoxicity against Homo sapiens (human) BT549 cells assessed as cell viability up to 25 ug/ml after 48 hr by neutral red assay; format: functional, cell-based
[11] = tested on: Candida parapsilosis; experiment: Antifungal activity against Candida parapsilosis NRRL Y-12696 after 24 hr by NCCLS broth microdilution method; format: functional; settings: Lodderomyces parapsilosis, NRRL Y-12696, 24 h
[12] = Cytotoxicity against Sus scrofa (pig) LLC-PK11 cells assessed as cell viability up to 25 ug/ml after 48 hr by neutral red assay; format: cell-based; settings: llc-pk11, 48 h
[13] = tested on: Candida tropicalis; experiment: Antifungal activity against Candida tropicalis NRRL Y-12968 at 2000 ug/ml by agar diffusion method; format: functional; settings: read-out: IZ
[14] = tested on: Nakaseomyces glabratus; experiment: Antifungal activity against Candida glabrata clinical isolate after 24 hr by NCCLS broth microdilution method; format: functional
[15] = molecular target: Transcription factor Sp1 (Homo sapiens, UniProt P08047); experiment: Inhibition of Sp1 (unknown origin) up to 25 ug/ml by luciferase reporter gene assay
Sequence of Transcription factor Sp1 (P08047 whole entry): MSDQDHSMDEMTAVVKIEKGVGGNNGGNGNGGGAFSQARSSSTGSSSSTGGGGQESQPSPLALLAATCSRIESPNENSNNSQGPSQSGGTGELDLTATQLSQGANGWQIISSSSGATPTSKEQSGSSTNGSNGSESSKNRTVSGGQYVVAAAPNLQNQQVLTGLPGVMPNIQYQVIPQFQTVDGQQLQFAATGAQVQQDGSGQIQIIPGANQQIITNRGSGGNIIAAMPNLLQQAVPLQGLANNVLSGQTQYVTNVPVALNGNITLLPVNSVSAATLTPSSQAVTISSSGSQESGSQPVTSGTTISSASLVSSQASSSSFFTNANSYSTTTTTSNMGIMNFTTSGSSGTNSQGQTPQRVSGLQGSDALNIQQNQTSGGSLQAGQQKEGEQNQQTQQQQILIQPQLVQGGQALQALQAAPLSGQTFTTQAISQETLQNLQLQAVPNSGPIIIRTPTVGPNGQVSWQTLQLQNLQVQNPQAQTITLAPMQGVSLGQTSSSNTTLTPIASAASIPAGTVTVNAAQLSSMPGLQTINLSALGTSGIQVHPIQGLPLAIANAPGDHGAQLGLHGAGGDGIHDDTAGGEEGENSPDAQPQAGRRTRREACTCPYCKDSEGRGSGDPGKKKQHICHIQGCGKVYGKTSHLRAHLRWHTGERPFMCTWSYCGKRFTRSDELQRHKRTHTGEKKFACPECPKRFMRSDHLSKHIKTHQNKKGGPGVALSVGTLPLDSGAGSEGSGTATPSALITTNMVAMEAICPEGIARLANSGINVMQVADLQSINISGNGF

[16] = tested on: Candida tropicalis; experiment: Antifungal activity against Candida tropicalis NRRL Y-12968 after 24 hr by NCCLS broth microdilution method; format: functional; settings: NRRL Y-12968, 24 h
[17] = tested on: Vero; experiment: Cytotoxicity against Chlorocebus aethiops (African green monkey) Vero cells assessed as cell viability up to 25 ug/ml after 48 hr by neutral red assay; format: cell-based; settings: chlorocebus sabaeus
[18] = tested on: SK-OV-3; experiment: Cytotoxicity against Homo sapiens (human) SKOV3 cells assessed as cell viability up to 25 ug/ml after 48 hr by neutral red assay; format: functional, cell-based
[19] = tested on: SK-MEL; experiment: Cytotoxicity against Homo sapiens (human) SK-MEL cells assessed as cell viability up to 25 ug/ml after 48 hr by neutral red assay; format: functional, cell-based
[20] = tested on: Candida albicans; experiment: Antifungal activity against Candida albicans ATCC 90028 after 24 hr by NCCLS broth microdilution method; format: functional; settings: ATCC 90028, 24 h
[21] = tested on: Cyberlindnera jadinii; experiment: Antifungal activity against Cyberlindnera jadinii NRRL Y-900 after 24 hr by NCCLS broth microdilution method; format: functional; settings: Williopsis jadinii, NRRL Y-900, 24 h
[22] = molecular target: T2, Nitric oxide synthase, inducible (Mus musculus, UniProt P29477); experiment: Inhibition of iNOS in Mus musculus (mouse) RAW264.7 cells assessed as inhibition of LPS-induced nitrite production incubated for 30 min prior to LPS challenge measured after 24 hr by Griess assay; format: cell-based
T2 sequence (P29477 whole entry): T1 sequence (whole entry)

[23] = tested on: HL-60; experiment: Cytotoxicity against Homo sapiens (human) HL60 cells up to 25 ug/ml; format: cell-based
[24] = tested on: HL-60; experiment: Antioxidant activity in PMA-stimulated Homo sapiens (human) HL60 cells assessed as inhibition of intracellular ROS generation up to 25 ug/ml incubated for 30 min prior to PMA stimulation measured after 30 min by DCFH-DA assay relative to vehicle-treated control; format: functional, cell-based
[25] = tested on: Candida albicans; experiment: Antifungal activity against Candida albicans clinical isolate after 24 hr by NCCLS broth microdilution method; format: functional
[26] = tested on: Colletotrichum fragariae; experiment: Antifungal activity against Colletotrichum fragariae at 0.3 to 30 uM after 48 to 72 hr by broth microdilution method; format: functional, organism-based
[27] = tested on: Botrytis cinerea; experiment: Antifungal activity against Botryotinia fuckeliana at 0.3 to 30 uM after 48 to 72 hr by broth microdilution method; format: functional, organism-based

Row | SMILES | IC50 [1] [µg/mL] | inhibition [2] | MIC [4] [µg/mL] | zone of inhibition at 2000 µg/mL [5] [mm] | Activity [6] | MIC [7] [µg/mL] | Activity [8] | IC50 [9] [µg/mL] | Activity [10] | MIC [11] [µg/mL] | Activity [12] | zone of inhibition at 2000 µg/mL [13] [mm] | MIC [14] [µg/mL] | inhibition (INH) [15] | MIC [16] [µg/mL] | Activity [17] | Activity [18] | Activity [19] | MIC [20] [µg/mL] | MIC [21] [µg/mL] | other results
1 | CN(C)c1ccc(/C=N/NC(=O)c2ccc(F)cc2)cc1 | 23 (≈ 80.6 µM) | inactive | 500 (≈ 1750 µM) | 9 | Non-toxic | 500 (≈ 1750 µM) | inactive | > 31.2 | inactive | 500 (≈ 1750 µM) | Not Active | 9 | 125 (≈ 438 µM) | Not Active | 500 (≈ 1750 µM) | Not Active | inactive | inactive | 500 (≈ 1750 µM) | 500 (≈ 1750 µM) | inhibition [3]: inactive
2 | COc1ccc(/C=N/NC(=O)c2ccc(F)cc2)cc1O | 0.9 (≈ 3.12 µM) | inactive | 500 (≈ 1730 µM) | 9 | Non-toxic | 500 (≈ 1730 µM) | inactive |  | inactive | 500 (≈ 1730 µM) | Not Active | 9 | 250 (≈ 867 µM) | Not Active | 250 (≈ 867 µM) | Not Active | inactive | inactive | 500 (≈ 1730 µM) | 500 (≈ 1730 µM) | IC50 [22]: 76.3 µM; Activity [23]: Non-toxic
3 | CC(=O)N1N=C(c2ccc(F)cc2)OC1c1ccc(Br)cc1 (configuration not stated) |  | inactive | 500 (≈ 1380 µM) | 9 | Non-toxic | 500 (≈ 1380 µM) | inactive |  | inactive | 500 (≈ 1380 µM) | Not Active | 9 | 500 (≈ 1380 µM) | Not Active | 250 (≈ 688 µM) | Not Active | inactive | inactive | 1000 (≈ 2750 µM) | 500 (≈ 1380 µM) | inhibition [24]: inactive; MIC [25]: 250 µg/mL (≈ 688 µM); Activity [26]: inactive; IC50 [22]: > 68.8 µM; Activity [23]: Non-toxic; Activity [27]: inactive
4 | CC(=O)N1N=C(c2ccc(F)cc2)OC1c1ccccc1 (configuration not stated) |  | inactive | 1000 (≈ 3520 µM) | 9 | Non-toxic | 500 (≈ 1760 µM) | inactive | 31.3 (≈ 110 µM) | inactive | 1000 (≈ 3520 µM) | Not Active | 9 | 1000 (≈ 3520 µM) | Not Active | 1000 (≈ 3520 µM) | Not Active | inactive | inactive | 1000 (≈ 3520 µM) | 1000 (≈ 3520 µM) | inhibition [24]: inactive; MIC [25]: 500 µg/mL (≈ 1760 µM); Activity [26]: inactive; IC50 [22]: > 87.9 µM; Activity [27]: inactive
5 | Cc1c(C)c2c(c(C)c1O)CCC(C)(C(=O)O)O2 (configuration not stated) [TROLOX] | 0.3 (≈ 1.2 µM) |  |  |  |  |  |  |  |  |  |  |  |  |  |  |  |  |  |  |  | 
6 | COc1ccc(/C=N/NC(=O)c2ccc(F)cc2)cc1 | 2.5 (≈ 9.18 µM) | inactive | 500 (≈ 1840 µM) | 9 | Non-toxic | 500 (≈ 1840 µM) | inactive | 20 (≈ 73.5 µM) | inactive | 500 (≈ 1840 µM) | Not Active | 9 | 250 (≈ 918 µM) | Not Active | 1000 (≈ 3670 µM) | Not Active | inactive | inactive | 500 (≈ 1840 µM) | 500 (≈ 1840 µM) | inhibition [3]: inactive
